From patent publication US6624203B1, “Nucleic acid bases used in ophthalmic solutions” (priority 2001, dated 2003)

Columns and labels:
[1] = tested on: Acanthamoeba castellanii cysts; assay: In vitro anti-acanthamoeba activity (serial dilution, viable trophozoites, log reduction); format: cell-based; conditions: 0.5% guanine with PHMB 0.02% versus control without guanine
Description: A formulation containing 0.5% guanine was prepared in a 0.2% glycine buffer at pH 7.35. The solution was preserved with polyhexamethylene biquanide at 0.02%. A similar control was prepared except without the guanine. The in vitro anti-acanthamoeba activity of the test and control solutions was determined by exposing Acanthamoeba castellanii cysts to 2 ml of each solution at room temperature for 10 minutes. Subsequently, an aliquot of each solution was serial diluted in duplicate and incubated for 14 days. At the conclusion of the incubation period, the dilutions were examined for viable Acanthamoeba trophozoites. The log reduction was determined based on a comparison to the inoculum control. A negative control was performed to verify the technique. The following table provides the results of the in vitro studies.

C. albicans = assay: In vitro microbicidal activity against C. albicans (log reduction vs inoculum control); format: cell-based; conditions: 0.2% phosphate buffer, isotonic NaCl, PHMB 0.0001%, pH 7.2
Description: A formulation containing guanine was prepared in a 0.2% phosphate buffer. The solution was made isotonic with sodium chloride and preserved with polyhexamethylene biquanide at 0.0001%. The pH was adjusted to 7.2 with either 1 N sodium hydroxide or 1 N hydrochloric acid. The in vitro microbicidal activity of the test and control solution was determined by exposing C. albicans to 10 ml of each solution at room temperature for 4 and 24 hours. Subsequently, an aliquot of each solution was serial diluted onto agar plates and incubated for 48 hours at elevated temperatures. At the conclusion of the incubation period the plates are examined for the development of colonies. The log reduction was determined based on a comparison to the inoculum control. The following table provides the results of the in vitro studies.

`Nc1nc2nc[nH]c2c(=O)[nH]1` [Guanine, guanine] was tested, and the “Effect of guanine on activity of preserved formulations against Acanthamoeba” value [1] was “improves the activity of preserved formulations against Acanthamoeba”, the “log reduction, 4 hours” value (C. albicans; C. albicans exposed to 10 ml solution at room temperature for 4 hours) was 0.97 and the “log reduction, 24 hours” value (C. albicans; C. albicans exposed to 10 ml solution at room temperature for 24 hours) was 3.05.
